In US20240293420A1, “PHARMACEUTICAL COMPOSITION, PREPARATION, AND PREPARATION METHOD THEREFOR AND USE THEREOF” (WUHAN LL SCIENCE AND TECHNOLOGY DEVELOPMENT CO., LTD., priority 2021, published 2024):
“Also recorded” adds a separate entry of the source.

Key:
[1] = phase II clinical trial; cited from earlier work
[2] = Pharmacokinetic experiments in Beagles; format: in vivo; conditions: Beagle, male, PO, 10 mg/kg, plasma
Experimental: The present disclosure preferred crystal forms I, III, and V of the compound in the above examples for pharmacokinetic experiments in Beagles, and the relevant experiments are as follows:
Animal: 9 Beagles, male, divided into three groups with 3 in each group, weight ranging from 10 to 13 kg (source & certificate number: Beijing Marshall Biotechnology Co., Ltd., No. 1103182011000161)
Administration mode and dosage: PO: 10 mg/kg
Preparation: 0.5% CMC-Na was used as the solvent, and 400 mg of each of the three different crystal forms of compound A were weighed and added to the corresponding 79 mL of solvent, respectively. The mixture was subjected to ultrasonication for 20 minutes, added with a stirrer, and mixed thoroughly for 3 hours (the storage period from compound preparation to animal administration at room temperature was less than 6 hours). After the drug solution became a homogeneous and fine suspension, which was observed by the naked eye, the solvent was gradually added until the specified volume reached the target concentration. The preparation was stirred for 10 minutes at room temperature before administration, and stirred continuously during administration.
Time points for sampling: the time points for blood sampling in the PO group were 0.167, 0.5, 1, 2, 4, 6, 8, and 24 hours.
Animals in the PO group were fasted overnight except for free access to water before administration, and resumed food supply 4 hours after administration.
After Beagles in the […] were administered, blood was collected from Beagles by jugular vein puncture according to the time points for sampling. About 1.0 mL of blood was collected at each time point and transferred to an anticoagulant EP tube (containing 10 μL of EDTA-K2, 375 mg/mL). The tube was gently inverted three times, stored in an ice box (no more than 30 minutes), and centrifuged at 3200 g for 10 minutes at 4° C. The plasma was transferred to an ultra-low temperature refrigerator and stored until detection.
Sample pretreatment process: 40 μL of sample was taken, and 160 μL of acetonitrile solution containing 0.1% FA and 200 ng/mL of mixed standard solution was added to precipitate the protein. The mixture was vortexed and mixed well, and the sample was centrifuged in a 4° C. centrifuge at 13000 pm for 10 minutes. 100 μL of the supernatant was transferred to another 96 deep well plate, then 100 μL of methanol:water (1:3, v:v) solution containing 0.1% FA was added thereto, and the mixture was shaken and mixed for 10 minutes.
• Ion source: ion electrospray (ESI) • Ionization mode: positive ion mode (Positive) • Detection mode (mode): multiple reaction monitoring (MRM) • Ion spray voltage: 5500 V • Ion spray temperature (turbo ion spray temp): 550° C. • Curtain gas type: nitrogen setting: 35 • Collision cell gas type (CAD gas type): nitrogen setting: medium • Nebulizing gas type (gas 1): nitrogen setting: 55.00 • Auxiliary gas type (gas 2): nitrogen setting: 55.00
• Chromatographic column: poroshell 120 EC-C18 (4.6×50 mm, 2.7 μm) • Mobile phase A: 0.1% formic acid aqueous solution • Mobile phase B: a solution of 0.1% formic acid in methanol • Auto sampler wash solution (rinse port wash solution): 50% methanol • Column temperature: 40° C. • Flow rate: 0.55 mL/min • Auto sampler temperature (sample tray temp): 10° C. • Injection volume: 3 μL • Lift of presser foot (needle stroke): 49 mm • Auto sampler rinse setting (rinse pump setting): rinse port only • Auto sampler rinse mode (rinse mode): before aspiration • Auto sampler rinse volume for needle (rinse volume): 500 μL • Dip time when rinsing the injection needle (rinse dip time): 2 seconds
The data would be analyzed using WinNonlin (version 5.2.1 Pharsight, Mountain View, CA) through a non-compartmental model to obtain PK parameters (selecting Cmax, Tmax, AUClast, T1/2, and other parameters according to different routes of administration).

[3] = Solubility tests in biological media of SGF, FaSSIF and FeSSIF; format: physicochemical
Experimental: The instrument used for liquid chromatography analysis was Agilent HPLC 1260 series, and the analytical method is shown in the table below.
The results of solubility tests of crystal forms I, III, and V in biological media of SGF, FaSSIF, and FeSSF are as shown in Table E and FIG. 43. There was little difference in the solubility of the above three crystal forms in different biological media, and the solubility in SGF was higher than 5 mg/mL.

[4] = Physical and chemical stability of crystal forms at 60° C. (closed) and 40° C./75% RH (open); format: physicochemical
Experimental: The physical and chemical stability of crystal forms I, III, and V at 60° C. (closed) and 40° C./75% RH (open) for 7 days were investigated respectively.
(closed) and 40° C./75% RH (open) for 3 months were investigated.

[5] = Dynamic vapor sorption (DVS) test; format: physicochemical; conditions: for DVS (wt %, 80% RH) / DVS (wt %, 90% RH): 25° C.
[6] = Crystal form transformation under humidity / drying (XRPD); format: physicochemical; conditions: humidity or drying as stated in the value
Text: Crystal form I can be obtained by the preparation method in Example 3. […] (FIG. 29). Combined with the DVS test results (FIG. 30), it can be seen that the mutual transformation between crystal forms I and IV is reversible.
Crystal form IV is a hygroscopic product of crystal form I under high humidity environment, and can be obtained by slurrying crystal form I or crystal form V in a mixed solvent of water/acetone with a water content of 50% to 95%.
Crystal form VI was obtained by slurrying crystal form I or crystal form V at 60° C. in a mixed solvent of water/acetone with a water content of 10% (volume ratio) at 60° C.
Crystal form VIII is a hydrate, but the hydrate is unstable.

AUClast [2] [ng·h/mL] | Cmax [2] [ng/mL] | T1/2 [2] [h] | Tmax [2] [h] | pH ([3]; FaSSIF, 0.5 h) | pH ([3]; FaSSIF, 2 h) | pH ([3]; FaSSIF, 24 h) | pH ([3]; FeSSIF, 0.5 h) | pH ([3]; FeSSIF, 2 h) | pH ([3]; FeSSIF, 24 h) | pH ([3]; SGF, 0.5 h) | pH ([3]; SGF, 2 h) | pH ([3]; SGF, 24 h) | Purity - 7 days (peak area %) ([4]; 40° C./75% RH (open), 7 days) | Purity - 7 days (peak area %) ([4]; 60° C. (closed), 7 days) | Initial purity (peak area %) [4] [peak area %] | DVS (wt %, 80% RH) ([5]; 80% RH) [wt %] | SMILES | XRPD of remaining solid ([3]; FaSSIF, 0.5 h) | XRPD of remaining solid ([3]; FeSSIF, 0.5 h) | crystal form transformation [6] | further results
7926 ± 6235 | 991 ± 800 | 11.9 ± 3.65 | 2.00 ± 0.00 | 6.4 | 6.4 | 6.4 | 5.0 | 5.1 | 5.1 | 1.2 | 1.3 | 1.2 | 99.38 | 99.37 | 99.38 | 6.8 | COC(=O)N1CCO[C@@H](Cc2c(-c3c(F)cc(S(N)(=O)=O)cc3F)nc3cc(Cl)ccn23)C1 [Crystal form I, methyl (S)-2-((7-chloro-2-(2,6-difluoro-4-sulfamoylphenyl)imidazo[1,2-a]pyridin-3-yl)methyl)morpholine-4-carboxylate] | transformed into crystal form IV as a hydrate | transformed into crystal form IV as a hydrate | absorbed moisture under high humidity environment and was transformed into crystal form IV as a hydrate; also recorded: easy to transform into crystal form IV when RH >40% | XRPD ([4]; 40° C./75% RH (open), 7 days): transformed into crystal form IV as a hydrate; XRPD before and after the DVS test [5]: remained unchanged; DVS (wt %, 90% RH) [5]: 6.9 wt %; hygroscopicity (DVS) ([5]; 80% RH): 6.8%
2637 ± 1750 | 170 ± 99.4 | 44.4 ± 28.9 | 4.67 ± 0.67 | 6.4 | 6.4 | 6.4 | 5.0 | 5.0 | 5.1 | 1.2 | 1.1 | 1.2 | 99.28 | 99.30 | 99.29 | 0.7 | COC(=O)N1CCO[C@@H](Cc2c(-c3c(F)cc(S(N)(=O)=O)cc3F)nc3cc(Cl)ccn23)C1 [Crystal form V, methyl (S)-2-((7-chloro-2-(2,6-difluoro-4-sulfamoylphenyl)imidazo[1,2-a]pyridin-3-yl)methyl)morpholine-4-carboxylate] | Unchanged | Unchanged |  | XRPD of remaining solid ([3]; FaSSIF, 2 h): Unchanged; XRPD of remaining solid ([3]; FaSSIF, 24 h): Unchanged; XRPD of remaining solid ([3]; FeSSIF, 2 h): Unchanged; XRPD of remaining solid ([3]; FeSSIF, 24 h): Unchanged; solubility at 2 h ([3]; pH 1.1, simulated gastric fluid, thermodynamic from solid, SGF, 2 h, visual observation): > 5000 µg/mL; DVS (wt %, 90% RH) [5]: 0.9 wt %

Continued, compound first:

SMILES | AUClast [2] [ng·h/mL] | Cmax [2] [ng/mL] | T1/2 [2] [h] | Tmax [2] [h] | pH ([3]; FaSSIF, 0.5 h) | pH ([3]; FaSSIF, 2 h) | pH ([3]; FaSSIF, 24 h) | pH ([3]; FeSSIF, 0.5 h) | pH ([3]; FeSSIF, 2 h) | pH ([3]; FeSSIF, 24 h) | pH ([3]; SGF, 0.5 h) | pH ([3]; SGF, 2 h) | pH ([3]; SGF, 24 h) | Purity - 7 days (peak area %) ([4]; 40° C./75% RH (open), 7 days) | Purity - 7 days (peak area %) ([4]; 60° C. (closed), 7 days) | Initial purity (peak area %) [4] [peak area %] | DVS (wt %, 80% RH) ([5]; 80% RH) [wt %] | XRPD of remaining solid ([3]; FaSSIF, 0.5 h) | XRPD of remaining solid ([3]; FeSSIF, 0.5 h) | crystal form transformation [6] | further results
COc1cc(C(C)C)c(Oc2cnc(N)nc2N)cc1S(N)(=O)=O [AF-219] |  |  |  |  |  |  |  |  |  |  |  |  |  |  |  |  |  |  |  |  | dysgeusia [1]: serious dysgeusia problem; efficacy on refractory cough [1]: good efficacy
COC(=O)N1CCO[C@@H](Cc2c(-c3c(F)cc(S(N)(=O)=O)cc3F)nc3cc(Cl)ccn23)C1 [Crystal form IV, methyl (S)-2-((7-chloro-2-(2,6-difluoro-4-sulfamoylphenyl)imidazo[1,2-a]pyridin-3-yl)methyl)morpholine-4-carboxylate] |  |  |  |  |  |  |  |  |  |  |  |  |  |  |  |  |  |  |  | transformed into crystal form I as an anhydrous crystal form after vacuum drying and dehydration | 
COC(=O)N1CCO[C@@H](Cc2c(-c3c(F)cc(S(N)(=O)=O)cc3F)nc3cc(Cl)ccn23)C1 [Crystal form VI, methyl (S)-2-((7-chloro-2-(2,6-difluoro-4-sulfamoylphenyl)imidazo[1,2-a]pyridin-3-yl)methyl)morpholine-4-carboxylate] |  |  |  |  |  |  |  |  |  |  |  |  |  |  |  |  |  |  |  | transformed into crystal form I after being placed under ambient humidity (35% RH) for a few minutes | 
COC(=O)N1CCO[C@@H](Cc2c(-c3c(F)cc(S(N)(=O)=O)cc3F)nc3cc(Cl)ccn23)C1 [Crystal form VIII, methyl (S)-2-((7-chloro-2-(2,6-difluoro-4-sulfamoylphenyl)imidazo[1,2-a]pyridin-3-yl)methyl)morpholine-4-carboxylate] |  |  |  |  |  |  |  |  |  |  |  |  |  |  |  |  |  |  |  | transformed into crystal form I | 
